From patent publication US7319098B2, “1,3-dioxoisoindole derivatives having selective antagonism of T-type calcium channel” (Korea Institute of Science and Technology, priority 2006, dated 2008)

What was measured:
α1G T-type Ca2+ currents = biological target: T1, α1G T-type Ca2+ currents (Homo sapiens, UniProt O43497); assay: Electrophysiological whole cell patch clamp method in HEK293 cell; format: cell-based; details: peak current, step to −30 mV, read-out: Activity (IC50) against T-type calcium channel
T1 construct: expressed in transfected cells; host or cells: HEK293
T1 sequence (O43497 whole entry): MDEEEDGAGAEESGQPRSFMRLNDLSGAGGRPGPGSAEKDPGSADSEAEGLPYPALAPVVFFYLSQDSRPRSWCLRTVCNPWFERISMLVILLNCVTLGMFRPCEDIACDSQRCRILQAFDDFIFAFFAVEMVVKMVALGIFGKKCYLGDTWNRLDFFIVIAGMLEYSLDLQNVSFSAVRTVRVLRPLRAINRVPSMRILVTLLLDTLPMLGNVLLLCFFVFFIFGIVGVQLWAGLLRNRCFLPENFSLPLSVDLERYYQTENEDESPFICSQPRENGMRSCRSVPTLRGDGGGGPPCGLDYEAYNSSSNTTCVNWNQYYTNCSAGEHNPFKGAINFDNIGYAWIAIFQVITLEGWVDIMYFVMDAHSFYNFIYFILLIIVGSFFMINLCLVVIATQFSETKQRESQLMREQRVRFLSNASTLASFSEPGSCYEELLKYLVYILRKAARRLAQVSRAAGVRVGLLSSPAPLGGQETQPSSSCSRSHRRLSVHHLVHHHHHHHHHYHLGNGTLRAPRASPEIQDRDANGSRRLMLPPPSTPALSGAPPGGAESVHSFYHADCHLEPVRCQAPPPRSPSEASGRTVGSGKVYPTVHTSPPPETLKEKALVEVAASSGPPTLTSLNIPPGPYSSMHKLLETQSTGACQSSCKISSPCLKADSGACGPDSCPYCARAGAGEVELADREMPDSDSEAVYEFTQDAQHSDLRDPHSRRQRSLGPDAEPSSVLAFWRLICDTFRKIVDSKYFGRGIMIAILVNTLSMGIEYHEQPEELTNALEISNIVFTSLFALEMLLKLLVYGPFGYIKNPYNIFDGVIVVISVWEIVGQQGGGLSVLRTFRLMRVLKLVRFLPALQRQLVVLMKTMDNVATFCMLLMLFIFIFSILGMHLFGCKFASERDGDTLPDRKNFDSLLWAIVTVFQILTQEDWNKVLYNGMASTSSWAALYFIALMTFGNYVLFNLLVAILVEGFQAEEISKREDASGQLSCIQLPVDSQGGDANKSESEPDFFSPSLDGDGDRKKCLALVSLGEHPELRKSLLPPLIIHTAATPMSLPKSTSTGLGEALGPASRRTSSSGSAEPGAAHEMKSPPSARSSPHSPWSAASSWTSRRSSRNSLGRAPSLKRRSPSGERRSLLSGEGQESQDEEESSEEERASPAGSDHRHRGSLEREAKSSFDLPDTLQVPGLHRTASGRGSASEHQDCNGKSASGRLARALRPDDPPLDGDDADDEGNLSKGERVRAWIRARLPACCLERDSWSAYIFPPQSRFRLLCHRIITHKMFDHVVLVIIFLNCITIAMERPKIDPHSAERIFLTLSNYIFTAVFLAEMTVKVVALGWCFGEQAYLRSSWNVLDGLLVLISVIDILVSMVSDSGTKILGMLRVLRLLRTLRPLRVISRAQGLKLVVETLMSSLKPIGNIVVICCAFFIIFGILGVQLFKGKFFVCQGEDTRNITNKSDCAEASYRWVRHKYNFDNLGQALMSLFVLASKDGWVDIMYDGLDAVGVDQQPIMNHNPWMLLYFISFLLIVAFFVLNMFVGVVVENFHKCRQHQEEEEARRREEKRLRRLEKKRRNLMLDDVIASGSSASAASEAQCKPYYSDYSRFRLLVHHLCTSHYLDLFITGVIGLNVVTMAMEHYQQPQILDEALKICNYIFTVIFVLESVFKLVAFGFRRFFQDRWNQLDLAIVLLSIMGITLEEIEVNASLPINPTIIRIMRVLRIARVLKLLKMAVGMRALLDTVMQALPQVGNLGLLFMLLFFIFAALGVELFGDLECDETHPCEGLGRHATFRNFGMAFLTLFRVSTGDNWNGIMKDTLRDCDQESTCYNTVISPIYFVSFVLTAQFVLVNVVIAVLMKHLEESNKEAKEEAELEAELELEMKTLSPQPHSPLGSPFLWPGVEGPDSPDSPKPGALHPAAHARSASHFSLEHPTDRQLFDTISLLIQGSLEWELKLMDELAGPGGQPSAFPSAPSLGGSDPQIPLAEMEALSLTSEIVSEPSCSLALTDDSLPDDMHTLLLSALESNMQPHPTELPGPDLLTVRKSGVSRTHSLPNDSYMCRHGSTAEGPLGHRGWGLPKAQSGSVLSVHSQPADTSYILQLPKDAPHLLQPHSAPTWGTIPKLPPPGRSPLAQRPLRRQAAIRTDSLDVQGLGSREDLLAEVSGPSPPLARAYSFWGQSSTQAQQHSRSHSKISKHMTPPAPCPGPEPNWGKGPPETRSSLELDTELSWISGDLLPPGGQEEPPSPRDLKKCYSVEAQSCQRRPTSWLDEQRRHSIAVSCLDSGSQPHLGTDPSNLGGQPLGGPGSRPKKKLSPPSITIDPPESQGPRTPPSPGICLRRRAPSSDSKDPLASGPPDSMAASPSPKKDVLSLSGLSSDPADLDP
Procedure: Meanwhile, the antagonistic activity of the novel compound of Formula (1) herein against T-type calcium channel was tested as described below. The synthesized compounds were tested for the activity against T-type calcium channel with FDSS6000. […] For the recordings of α1G T-type Ca^2+ currents, the standard whole-cell patch-clamp method was utilized as previously described. Briefly, borosilicate glass electrodes with a resistance of 3˜4 MΩ were pulled and filled with the internal solution contained (in mM): 130 KCl, 11 EGTA, 5 Mg-ATP, and 10 HEPES (pH 7.4). […] The molar concentrations of test compounds required to produce 50% inhibition of peak currents (IC50) were determined from fitting raw data into dose-response curves. The current recordings were obtained using an EPC-9 amplifier and Pulse/Pulsefit software program (HEKA, Germany).

α1G T-type Ca2+ channels = biological target: T2, α1G T-type Ca2+ channels (Homo sapiens, UniProt O43497); assay: Screening of activity against T-type calcium channel with FDSS6000 (fluorescence, KCl-induced [Ca2+]i increase); format: cell-based; details: HEK293 cells expressing α1G and Kir2.1, read-out: Inhibitory effect (%) of T-type calcium channel, Inhibition (%); for inhibition at 10 µM: NA: Not Active
T2 construct: expressed in transfected cells; host or cells: HEK293 cells stably expressing α1G and Kir2.1
T2 sequence (O43497 whole entry): as above
How it was run: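 HEK293 cells stably expressing α1G plus Kir2.1 were loaded with 5 μM fluo3/AM for 60 min at room temperature in HEPES buffer pH 7.4. In buffer with 10 mM CaCl2, cells were pretreated with compound, then depolarized with 70 mM KCl. The rise in [Ca2+]i was measured by fluorescence […].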

[1] = spinal nerve ligation animal model; cited from earlier work

IC50 (α1G T-type Ca2+ currents) [nM] | inhibition at 10 µM (α1G T-type Ca2+ channels) [%] | inhibition at 100 µM (α1G T-type Ca2+ channels) [%] | Compound | effect on mechanic and thermal induction (neurogenic pain) [1]
930 ± 60 | 46.6 |  | CC1CCCCN1CCCNC(=O)c1ccc2c(c1)C(=O)N(Cc1ccc(Cl)cc1)C2=O (stereo not shown) [Compound 88, 1-(3-{[2-(4-chloro-benzyl)-1,3-dioxo-2,3-dihydro-1H-isoindol-5-carbonyl]-amino}-propyl)-2-methyl-piperidinium chloride] | 
8280 ± 2950 |  | 90.4 | Cc1ccccc1CN1C(=O)c2ccc(C(=O)NCCN3CCCCC3)cc2C1=O [Compound 93, 1-(2-{[2-(2-methyl-benzyl)-1,3-dioxo-2,3-dihydro-1H-isoindol-5-carbonyl]-amino}-ethyl)-piperidinium chloride] | 
2070 ± 450 |  | 84.8 | Cc1ccccc1CN1C(=O)c2ccc(C(=O)NCCCN3CCCCC3C)cc2C1=O (stereo not shown) [Compound 94, 2-methyl-1-(3-{[2-(2-methyl-benzyl)-1,3-dioxo-2,3-dihydro-1H-isoindol-5-carbonyl]-amino}-propyl)-piperidinium chloride] | 
1930 ± 230 |  | 89.7 | Cc1cccc(CN2C(=O)c3ccc(C(=O)NCCN4CCCCC4)cc3C2=O)c1 [Compound 99, 1-(2-{[2-(3-methyl-benzyl)-1,3-dioxo-2,3-dihydro-1H-isoindol-5-carbonyl]-amino}-ethyl)-piperidinium chloride] | 
1840 ± 210 | 48.4 |  | Cc1cccc(CN2C(=O)c3ccc(C(=O)NCCCN4CCCCC4C)cc3C2=O)c1 (stereo not shown) [Compound 100, 2-methyl-1-(3-{[2-(3-methyl-benzyl)-1,3-dioxo-2,3-dihydro-1H-isoindol-5-carbonyl]-amino}-propyl)-piperidinium chloride] | 
 |  |  | CCC1(C)CC(=O)NC1=O (stereo not shown) [Ethosuximide] | dosage-dependent reversed mechanic and thermal induction
 | 75.1 |  | COCC(=O)O[C@]1(CCN(C)CCCc2nc3ccccc3[nH]2)CCc2cc(F)ccc2[C@@H]1C(C)C [Mibefradil, reference compound] | dosage-dependent reversed mechanic and thermal induction
